Values quoted from earlier work in US8748481B2, “Method for treating gastrointestinal disorder” (Sucampo AG, priority 2004, dated 2014).
Structures can show the parent of a compound that is named as a salt.

Tested on: patients with IBS with constipation / chronic idiopathic constipation
Settings: cited from earlier work

[H]/N=C(/NCCCCC)N/N=C/c1c[nH]c2ccc(OC)cc12 [Zelnorm®, tegaserod maleate]
Return of symptoms after stopping (after patients stop taking the drug): may return within 1 or 2 weeks
Treatment effect over placebo in patients aged 65 years and older (subgroup analyses): no significant treatment effect
Response rates vs. placebo in males (two randomized, placebo-controlled, double-blind studies enrolling 288 males): no significant differences
